# Data: article PMC10057480, “Expanding the Library of 1,2,4-Oxadiazole Derivatives: Discovery of New Farnesoid X Receptor (FXR) Antagonists/Pregnane X Receptor (PXR) Agonists” (Molecules, 2023)
# “And” between values parts separate entries of the source, which are not always exact repeats. Equal values may be shown once.
# Tests used:
# Assay type in all cases: cell-based
# FXR = target: T1, FXR (Homo sapiens, UniProt Q96RI1); assay: FXR luciferase reporter transactivation assay (antagonism) on HepG2 cells; conditions: HepG2 transactivation; compounds at 50 μM; percent inhibition of transactivation set at 100%; mean ± SD, at least three experiments
# T1 construct: expressed in transfected cells; host or cells: HepG2
# T1 sequence (Q96RI1 1-486): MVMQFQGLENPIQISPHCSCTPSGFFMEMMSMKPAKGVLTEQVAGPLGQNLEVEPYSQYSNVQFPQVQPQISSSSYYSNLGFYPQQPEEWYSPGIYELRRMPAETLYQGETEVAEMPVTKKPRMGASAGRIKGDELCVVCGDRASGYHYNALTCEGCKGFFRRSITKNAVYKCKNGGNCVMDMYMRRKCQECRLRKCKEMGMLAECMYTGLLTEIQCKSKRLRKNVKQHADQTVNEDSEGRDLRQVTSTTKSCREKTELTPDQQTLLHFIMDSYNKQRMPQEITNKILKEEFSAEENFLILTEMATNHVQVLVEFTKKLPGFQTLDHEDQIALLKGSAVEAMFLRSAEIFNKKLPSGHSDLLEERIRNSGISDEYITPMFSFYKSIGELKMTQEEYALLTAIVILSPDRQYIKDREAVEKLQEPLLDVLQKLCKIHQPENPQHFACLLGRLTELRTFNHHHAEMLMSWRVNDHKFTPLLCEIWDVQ
# Method: The antagonistic activity on FXR was investigated using HepG2 cells transfected with 100 ng of pSG5-FXR and pSG5-RXR, 200 ng of the reporter vector p(hsp27)-TK-LUC containing the FXR response element, and 100 ng of the pGL4.70 vector encoding the human Renilla gene used as a transfection control. […] In another experimental setting, HepG2 cells were transfected using 100 ng of pSG5-PXR, 100 ng of pSG5-RXR, and 100 ng of pGL4.70, along with the reporter vector pGL3(henance)PXRE. At 24 h post-transfection, cells were stimulated with rifaximin 10 μM (as a positive control) or compounds 2–11 (10 μM). The specificity of compounds 5 and 11 versus FXR and PXR was tested using HepG2 cells transiently transfected with 200 ng of the reporter vector p(UAS)5XTKLuc, 100 ng of a vector containing the ligand binding domain of LXRα or LXRβand 100 ng of pGL4.70, a vector encoding the human Renilla gene. At 24 h post-transfection, cells were stimulated for 18 h with GW3965 (5 μM), compounds 5 and 11 (10 μM), and the combination of GW3965 plus 5 or 11 (50 μM). Cellular lysate was assayed for luciferase and Renilla activities after 18 h using the Dual-Luciferase Reporter assay system (E1980, Promega, Madison, WI, USA). The activity of luciferase was measured using the Glomax 20/20 luminometer (Promega, Madison, WI, USA) and normalized with Renilla activities.
# HepG2 cells = assay: Toxicity on HepG2 cells seen in the FXR transactivation assay; conditions: at 50 μM
# Method: (§1) The antagonistic activity on FXR was investigated using HepG2 cells transfected with 100 ng of pSG5-FXR and pSG5-RXR, 200 ng of the reporter vector p(hsp27)-TK-LUC containing the FXR response element, and 100 ng of the pGL4.70 vector encoding the human Renilla gene used as a transfection control. Cells were stimulated with the agonist 6-ECDCA (10 µM) alone or in combination with compounds 2–11 after 24 h. In another experimental setting, HepG2 cells were transfected using 100 ng of pSG5-PXR, 100 ng of pSG5-RXR, and 100 ng of pGL4.70, along with the reporter vector pGL3(henance)PXRE. At 24 h post-transfection, cells were stimulated with rifaximin 10 μM (as a positive control) or compounds 2–11 (10 μM). The specificity of compounds 5 and 11 versus FXR and PXR was tested using HepG2 cells transiently transfected with 200 ng of the reporter vector p(UAS)5XTKLuc, 100 ng of a vector containing the ligand binding domain of LXRα or LXRβand 100 ng of pGL4.70, a vector encoding the human Renilla gene. At 24 h post-transfection, cells were stimulated for 18 h with GW3965 (5 μM), compounds 5 and 11 (10 μM), and the combination of GW3965 plus 5 or 11 (50 μM). Cellular lysate was assayed for luciferase and Renilla activities after 18 h using the Dual-Luciferase Reporter assay system (E1980, Promega, Madison, WI, USA). The activity of luciferase was measured using the Glomax 20/20 luminometer (Promega, Madison, WI, USA) and normalized with Renilla activities.
# PXR = target: T2, PXR (Homo sapiens, UniProt O75469); assay: PXR luciferase reporter transactivation assay (agonism) on HepG2 cells; conditions: compound 10 μM, maximal transactivation compared to Rifaximin 10 μM, mean ± SD, at least three experiments
# T2 construct: expressed in transfected cells; host or cells: HepG2
# T2 sequence (O75469 1-434): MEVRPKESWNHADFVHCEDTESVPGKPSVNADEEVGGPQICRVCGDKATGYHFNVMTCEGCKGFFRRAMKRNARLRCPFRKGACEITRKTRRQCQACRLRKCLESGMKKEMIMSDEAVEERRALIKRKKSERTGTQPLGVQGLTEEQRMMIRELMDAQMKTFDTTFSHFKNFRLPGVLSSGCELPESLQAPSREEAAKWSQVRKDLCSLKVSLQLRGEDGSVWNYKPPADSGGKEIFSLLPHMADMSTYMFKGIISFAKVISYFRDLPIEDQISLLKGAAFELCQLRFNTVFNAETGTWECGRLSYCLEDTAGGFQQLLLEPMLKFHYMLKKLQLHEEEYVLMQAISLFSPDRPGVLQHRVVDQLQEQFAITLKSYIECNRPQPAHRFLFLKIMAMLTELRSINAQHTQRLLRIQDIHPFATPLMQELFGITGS
# T2 sequence (P19793 1-462 partner): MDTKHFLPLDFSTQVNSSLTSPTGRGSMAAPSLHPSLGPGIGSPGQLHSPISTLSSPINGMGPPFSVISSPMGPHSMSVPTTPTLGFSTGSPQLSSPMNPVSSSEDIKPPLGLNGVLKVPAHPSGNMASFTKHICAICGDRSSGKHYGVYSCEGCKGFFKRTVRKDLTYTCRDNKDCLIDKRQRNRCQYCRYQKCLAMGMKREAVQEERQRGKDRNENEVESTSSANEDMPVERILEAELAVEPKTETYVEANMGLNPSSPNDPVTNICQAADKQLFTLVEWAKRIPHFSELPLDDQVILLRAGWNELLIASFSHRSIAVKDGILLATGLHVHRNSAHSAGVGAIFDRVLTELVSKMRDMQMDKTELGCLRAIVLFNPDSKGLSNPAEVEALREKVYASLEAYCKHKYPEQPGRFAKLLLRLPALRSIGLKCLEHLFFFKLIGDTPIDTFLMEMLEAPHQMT
# Method: as §1
# [1] = tested on: Human-CaCo2 cells stimulated with TNFα; assay: qPCR of PXR and inflammatory cytokines in TNFα-stimulated CaCo2 cells; conditions: TNFα 100 ng/mL plus compound 10 μM
# Method: HepG2 and CaCo2 cell lines, obtained from ATCC, were routinely cultured in Eagle’s MEM and high-glucose DMEM, respectively, supplemented with 10% FBS, 1% glutamine, and penicillin/streptomycin. For in vitro experiments, HepG2 (2 × 106) cells were stimulated with 6-ECDCA at a concentration of 10 µM alone or in combination with compound 5 or 11, and CaCo2 cells were exposed to TNFα (100 ng/mL) alone or in combination with rifaximin, compound 5, or 11.
# Total RNA was isolated from the HepG2 and CaCo2 cell lines using TRI reagent (Zymo Research) and Direct-zol™ RNA MicroPrep w/Zymo-Spin™ IIC Columns (Zymo Research, Irvine, CA, USA). After purification from genomic DNA using DNase I (Thermo Fisher Scientific, Waltham, MA, USA), 2 μg of RNA from each sample was reverse transcribed using Kit FastGene Scriptase Basic (Nippon Genetics, Mariaweilerstraße, Düren, Germany) in 20-μL of reaction volume, and 50 ng of cDNA was amplified in a 20-μL solution containing 200 nM of each primer and 10 μL of PowerUp™ SYBR™ Green Master Mix (Thermo Fisher Scientific, Waltham, MA, USA) using a Quantstudio 3 system (Applied Biosystems, Foster City, CA, USA). The relative mRNA expression was calculated according to the ΔCt method. The primer used were as follows (forward and reverse): hGapdh (for […]; rev […]), hBsep (for […]; rev […]), hOstα (for […]; rev […]), hNtcp (for […]; rev […]), hPxr (for GCAAGGGCTTTTTCAGGAG; rev GGGTCTTCCGGGTGATCT), hIl-8 (for […]; rev […]), hIl-1β (for […]; rev […]).
SMILES,PXR Agonism Eff (%) (PXR),FXR Antagonism Eff (%) (FXR),Toxicity on HepG2 cells (HepG2 cells),Effect on proinflammatory factors caused by TNFα stimulation [1]
"CCN1CCC(c2nc(-c3ccc4ccccc4c3)no2)CC1 [Compound 2, 5-(1-Ethylpiperidin-4-yl)-3-(naphthalen-2-yl)-1,2,4-oxadiazole]",2 ± 0.3%,Toxic,toxic,
"CCCN1CCC(c2nc(-c3ccc4ccccc4c3)no2)CC1 [Compound 3, 3-(Naphthalen-2-yl)-5-(1-propylpiperidin-4-yl)-1,2,4-oxadiazole]",15 ± 0.5%,Toxic,toxic,
"CCCCN1CCC(c2nc(-c3ccc4ccccc4c3)no2)CC1 [Compound 4, 5-(1-Butylpiperidin-4-yl)-3-(naphthalen-2-yl)-1,2,4-oxadiazole]",68% and 68 ± 8%,38 ± 5%,,
"CCCCCCN1CCC(c2nc(-c3ccc4ccccc4c3)no2)CC1 [Compound 6, 5-(1-Hexylpiperidin-4-yl)-3-(naphthalen-2-yl)-1,2,4-oxadiazole]",23 ± 0.7%,,,
"CO[C@H]1/C=C/O[C@@]2(C)Oc3c(C)c(O)c4c(O)c(c5c(nc6cc(C)ccn65)c4c3C2=O)NC(=O)/C(C)=C\C=C\[C@H](C)[C@H](O)[C@@H](C)[C@@H](O)[C@@H](C)[C@H](OC(C)=O)[C@@H]1C [rifaximin, reference compound]",,,,reduced changes in the production of proinflammatory factors

# Now from value to molecule, other results behind:
PXR Agonism Eff (%) (PXR),SMILES,FXR Antagonism Eff (%) (FXR),Toxicity on HepG2 cells (HepG2 cells),Effect on proinflammatory factors caused by TNFα stimulation [1]
28 ± 3%,"CCCCCCCN1CCC(c2nc(-c3ccc4ccccc4c3)no2)CC1 [Compound 7, 5-(1-Heptylpiperidin-4-yl)-3-(naphthalen-2-yl)-1,2,4-oxadiazole]",Toxic,toxic,
50% and 50 ± 7%,"CC(C)N1CCC(c2nc(-c3ccc4ccccc4c3)no2)CC1 [Compound 8, 5-(1-Isopropylpiperidin-4-yl)-3-(naphthalen-2-yl)-1,2,4-oxadiazole]",,,
3 ± 0.2%,"CCC(C)N1CCC(c2nc(-c3ccc4ccccc4c3)no2)CC1 (stereo not shown) [Compound 9, 5-(1-(Sec-butyl)piperidin-4-yl)-3-(naphthalen-2-yl)-1,2,4-oxadiazole]",Toxic,toxic,
20 ± 3%,"OCc1cccc(CN2CCC(c3nc(-c4ccc5ccccc5c4)no3)CC2)c1 [Compound 10, 5-[1-(3-(Hydroxymethyl)benzyl)piperidin-4-yl]-3-(naphthalen-2-yl)-1,2,4-oxadiazole]",66% and 66 ± 13%,,
